US20250170136A1, “1,2,4-TRIAZIN-3(2H)-ONE COMPOUNDS FOR THE TREATMENT OF HYPERPROLIFERATIVE DISEASES” (BAYER AKTIENGESELLSCHAFT, priority 2019, published 2025)

Tests used:
[1] = system: HeLa cells; experiment: Cell proliferation measurement (CellTiter-Glo, 72 h); type: cell-based; conditions: Homo sapiens, anti-proliferation
Description: (§1) The antiproliferative activity of the compounds of the general formula (I) was examined in vitro in human cancer cells. […] After 24 h, cells on one plate (0 h plate) were treated with 30 μl/cavity of CTG solution (Promega Cell Titer Glo (catalogue #G755B and G756B)) and incubated at room temperature for 10 min, and luminescence was measured by means of a VICTOR V (Perkin Elmer), in order to determine cell viability on commencement of treatment. The cells on the test plate were treated with the compounds of the general formula (I) as and incubated at 37° C. for 72 h. The compounds were added to the cells by means of an HP D300 digital dispenser in a 10-step 2,5-fold dilution series generally starting at a maximum final drug concentration of 100 nM, or 30 μM in the case of COV318. As control, the cells were treated with vehicle (DMSO at 0.3% final concentration). After 72 h, the cells were treated with 30 μl/cavity of CTG solution (Promega Cell Titer Glo (catalogue #G755B and G756B)) and incubated at room temperature for 10 min, and luminescence was measured by means of a VICTOR V (Perkin Elmer), in order to determine cell viability at the end of treatment. The percentage effect on cell growth and the IC50 derived therefrom were determined for each test substance using the values from the 0 h plate (=maximum inhibition) and the DMSO control (=minimum inhibition). The IC50 values were calculated using a 4-parameter fit.

[2] = system: SK-MEL-3 cells; experiment: as above; type: cell-based; conditions: Homo sapiens, SK-MEL3; anti-proliferation, SK-MEL-3, 72 h
Description: as §1

[3] = biological target: human full length PDE3A (Homo sapiens (Human), UniProt Q14432); experiment: PDE3A enzyme inhibition (3H-cAMP Scintillation Proximity Assay); type: biochemical; conditions: Sf9 cell extract, 60 min room temperature
Description: (§2) The commercially available 3H-cAMP Scintillation Proximity Assay (SPA, Perkin Elmer) system was used for enzyme inhibition studies. For the determination of the in vitro effect of example compounds on the PDE3A reactions 2 μl of the respective example compound solution in DMSO (serial dilutions) were placed in wells of microtiter plates (Isoplate-96/200W; Perkin Elmer). 50 μl of a dilution of PDE3A cell extract from Sf9 cells overexpressing human full length PDE3A (SB Drug Discovery, UK) in buffer A (50 mM Tris/HCl pH 7.5, 8.3 mM MgCl2, 1.7 mM EDTA, 0.2% BSA) was added. The dilution of the PDE3A cell extract was chosen such that the reaction kinetics was linear and less than 70% of the substrate was consumed (typical dilution 1:5000). The reaction was started by addition of 50 μl (0.025 μCi) of 1:2000 in buffer A w/o BSA diluted substrate [8-3H]adenosine 3′, 5′-cyclic phosphate (1 μCi/μl; Perkin Elmer). After incubation at room temperature for 60 min, the reaction was stopped by addition of 25 μl of a suspension containing 18 mg/ml yttrium scintillation proximity beads (Perkin Elmer) in water. The microtiter plates were sealed and measured in a Microbeta scintillation counter (PerkinElmer Wallac). IC50 values were determined from sigmoidal curves by plotting percentage PDE3A activity vs log compound concentration.

[4] = biological target: human full length PDE3B (Homo sapiens (Human), UniProt Q13370); experiment: PDE3B enzyme inhibition (3H-cAMP Scintillation Proximity Assay); type: biochemical; conditions: Sf9 cell extract, 60 min room temperature
Description: as §2, with “PDE3B” for “PDE3A”, “1:6000).” for “1:5000).”

Sequence of human full length PDE3B (Q13370 whole entry): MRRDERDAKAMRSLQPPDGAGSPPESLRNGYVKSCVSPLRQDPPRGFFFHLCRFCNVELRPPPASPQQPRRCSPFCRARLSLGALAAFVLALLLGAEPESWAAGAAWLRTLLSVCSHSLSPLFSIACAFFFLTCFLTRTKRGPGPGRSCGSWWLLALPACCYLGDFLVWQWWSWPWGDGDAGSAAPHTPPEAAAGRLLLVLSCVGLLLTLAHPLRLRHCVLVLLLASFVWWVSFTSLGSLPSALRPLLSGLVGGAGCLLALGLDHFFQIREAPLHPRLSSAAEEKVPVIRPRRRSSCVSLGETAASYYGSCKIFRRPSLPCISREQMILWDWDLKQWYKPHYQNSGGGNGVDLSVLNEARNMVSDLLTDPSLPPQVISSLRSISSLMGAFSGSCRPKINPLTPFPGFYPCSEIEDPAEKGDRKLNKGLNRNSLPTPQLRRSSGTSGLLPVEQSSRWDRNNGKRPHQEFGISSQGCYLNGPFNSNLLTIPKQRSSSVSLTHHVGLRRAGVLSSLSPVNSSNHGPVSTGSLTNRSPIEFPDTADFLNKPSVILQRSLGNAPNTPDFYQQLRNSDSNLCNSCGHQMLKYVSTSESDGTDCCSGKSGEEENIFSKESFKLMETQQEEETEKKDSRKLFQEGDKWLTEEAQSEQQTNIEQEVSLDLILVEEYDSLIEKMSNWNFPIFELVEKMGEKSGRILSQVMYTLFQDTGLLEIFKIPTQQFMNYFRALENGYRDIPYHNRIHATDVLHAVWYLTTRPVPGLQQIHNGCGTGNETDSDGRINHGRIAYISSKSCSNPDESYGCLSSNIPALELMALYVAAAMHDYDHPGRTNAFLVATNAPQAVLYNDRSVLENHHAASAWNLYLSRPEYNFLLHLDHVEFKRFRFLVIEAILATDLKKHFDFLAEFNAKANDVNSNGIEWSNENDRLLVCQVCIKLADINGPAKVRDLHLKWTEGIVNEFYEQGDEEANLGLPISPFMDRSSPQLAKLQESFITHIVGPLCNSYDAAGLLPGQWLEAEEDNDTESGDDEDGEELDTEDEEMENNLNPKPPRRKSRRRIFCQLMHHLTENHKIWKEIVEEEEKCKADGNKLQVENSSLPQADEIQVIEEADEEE
Sequence of human full length PDE3A (Q14432 whole entry): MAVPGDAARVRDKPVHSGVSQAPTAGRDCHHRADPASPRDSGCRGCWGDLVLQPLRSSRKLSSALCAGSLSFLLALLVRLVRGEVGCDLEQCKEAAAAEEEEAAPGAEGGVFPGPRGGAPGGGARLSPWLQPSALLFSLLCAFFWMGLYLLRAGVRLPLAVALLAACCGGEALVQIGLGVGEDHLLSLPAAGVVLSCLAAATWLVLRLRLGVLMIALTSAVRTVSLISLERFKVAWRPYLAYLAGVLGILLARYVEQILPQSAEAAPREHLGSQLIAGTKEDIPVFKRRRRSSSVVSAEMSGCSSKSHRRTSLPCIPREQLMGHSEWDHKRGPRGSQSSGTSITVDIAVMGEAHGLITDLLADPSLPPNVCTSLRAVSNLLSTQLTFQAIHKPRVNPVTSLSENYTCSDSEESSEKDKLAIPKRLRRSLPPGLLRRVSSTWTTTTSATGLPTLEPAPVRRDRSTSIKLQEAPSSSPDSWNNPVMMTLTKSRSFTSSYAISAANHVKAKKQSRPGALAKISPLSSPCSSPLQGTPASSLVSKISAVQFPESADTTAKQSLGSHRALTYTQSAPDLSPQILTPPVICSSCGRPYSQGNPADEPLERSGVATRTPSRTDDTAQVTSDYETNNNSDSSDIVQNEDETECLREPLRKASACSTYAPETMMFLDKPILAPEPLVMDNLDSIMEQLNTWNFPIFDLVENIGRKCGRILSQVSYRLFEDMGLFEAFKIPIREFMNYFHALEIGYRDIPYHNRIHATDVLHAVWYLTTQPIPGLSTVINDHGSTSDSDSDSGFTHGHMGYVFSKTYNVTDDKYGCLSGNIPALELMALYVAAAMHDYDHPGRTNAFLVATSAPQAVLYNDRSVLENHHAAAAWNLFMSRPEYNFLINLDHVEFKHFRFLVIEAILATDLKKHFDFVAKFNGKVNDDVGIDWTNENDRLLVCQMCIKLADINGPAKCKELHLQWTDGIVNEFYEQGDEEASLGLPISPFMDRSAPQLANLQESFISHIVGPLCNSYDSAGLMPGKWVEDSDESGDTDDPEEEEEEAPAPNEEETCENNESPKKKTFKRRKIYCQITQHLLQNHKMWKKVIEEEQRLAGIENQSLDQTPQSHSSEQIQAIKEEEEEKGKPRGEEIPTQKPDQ

Row | SMILES | IC50 [1] [nM] | IC50 [2] [nM] | IC50 [3] [nM] | IC50 [4] [nM]
1 | C[C@@H]1NC(=O)NN=C1c1ccc(N2CC(C)(O)C2)c(C(F)(F)F)c1 [Example 3, (5S)-6-[4-(3-hydroxy-3-methylazetidin-1-yl)-3-(trifluoromethyl)phenyl]-5-methyl-4,5-dihydro-1,2,4-triazin-3(2H)-one] | 0.1 | 0.3 | 2 | 1
2 | C[C@@H]1NC(=O)NN=C1c1ccc(NCc2ccn[nH]2)c(C(F)(F)F)c1 [Example 2, (5S)-5-methyl-6-[4-{[(1H-pyrazol-5-yl)methyl]amino}-3-(trifluoromethyl)phenyl]-4,5-dihydro-1,2,4-triazin-3(2H)-one] | 0.7 | 0.3 | 5 | 6
3 | C[C@@H]1NC(=O)NN=C1c1ccc(NC2CCCC2)c(C(F)(F)F)c1 [Example 4, (5S)-6-[4-(cyclopentylamino)-3-(trifluoromethyl)phenyl]-5-methyl-4,5-dihydro-1,2,4-triazin-3(2H)-one] | 0.1 | 0.4 | 2 | 1

Now from value to compound:

Row | IC50 [1] [nM] | IC50 [2] [nM] | IC50 [3] [nM] | IC50 [4] [nM] | SMILES
4 | 0.2 | 0.6 | 4 | 5 | C[C@@H]1NC(=O)NN=C1c1ccc(NC[C@@H](O)C(F)(F)F)c(C(F)(F)F)c1 [Example 5, (5S)-5-methyl-6-[4-{[(2R)-3,3,3-trifluoro-2-hydroxypropyl]amino}-3-(trifluoromethyl)phenyl]-4,5-dihydro-1,2,4-triazin-3(2H)-one]
5 | 0.3 | 0.7 | 4 | 5 | C[C@@H]1NC(=O)NN=C1c1ccc(NCc2cnccn2)c(C(F)(F)F)c1 [Example 6, (5S)-5-methyl-6-[4-{[(pyrazin-2-yl)methyl]amino}-3-(trifluoromethyl)phenyl]-4,5-dihydro-1,2,4-triazin-3(2H)-one]
